{
  "source": "patent US20220054558A1",
  "about": "“COMPOSITIONS COMPRISING BACTERIAL STRAINS” (4D Pharma Research Limited, priority 2018, published 2022)",
  "origin": "cited, not measured here",
  "test_system": "C. difficile",
  "settings": "reference [19]",
  "data": [
    {"smiles": "CCCCC(=O)O", "note": "[Valeric acid]", "values": [
      {"measurement": "viability of C. difficile", "result": "reduce the viability"}
    ]}
  ]
}
